Data on two compounds can be found in patent US20210317090A1, “AMINO ACID DEPLETION AGENTS AS ANTIPROLIFERATIVE AGENTS” (University of Central Florida Research Foundation, Inc., priority 2018, published 2021).

Series [1] has as its system L3.6pl cells. The series can be described thus: Intracellular polyamine and Ant-44 levels (N-dansylation, HPLC) in L3.6pl cells. The series is classed as cell-based, human. Particulars: Ant-44 only control (2 μM), 72 h. The protocol: One explanation for the enhanced potency was that compound 10 (1666.255) increased polyamine import and, as a result, may have increased intracellular Ant-44 levels. To test this hypothesis, L3.6pl cells were dosed with a fixed concentration of Ant-44 (2 μM) alone and in combination with increasing concentrations of compound 10 (1666.255) to explore how this combination therapy affected intracellular polyamine pools and Ant-44 import.
FIG. 7 is an example according to various embodiments, illustrating both single and combination therapies in L3.6pl cells with Ant-44 and compound 10 (1666.255) after 72 h incubation. Polyamine and Ant-44 levels (expressed as nmoles/mg protein) and relative % viability versus an untreated control were observed after 72 h incubation at 37° C. The untreated control was run in parallel and polyamine levels determined in duplicate and % cell viability in triplicate. Ant-44 was dosed at a fixed concentration of 2 μM and compound 10 (1666.255) at increasing concentrations. Cell viability tracked well with total intracellular polyamine levels (sum of putrescine, spermidine and spermine).
It was concluded that compound 10 was neither acting as a PTI nor as a polyamine import agonist. How then could it lead to intracellular polyamine depletion? […] To test this hypothesis, L3.6pl cells were dosed with increasing concentrations of compound 10 (1666.255) without Ant44. If compound 10 (1666.255) was acting on polyamine pools, one should see a reduction in total polyamine levels as well as decreased cell viability in a dose dependent manner upon increasing levels of 10. Therefore, the toxicity of compound 10 and intracellular polyamine levels after 72 h exposure to 10 were measured (FIG. 8).
FIG. 8 is an example according to various embodiments, illustrating intracellular polyamine levels (expressed as nmoles polyamine/mg protein) in L3.6pl cells dosed with increasing concentrations of compound 10 (1666.255) after cells were incubated for 72 h at 37° C. The untreated control was run in parallel and polyamine levels determined in duplicate via N-dansylation and HPLC. The data was averaged and reported as nmol polyamine (PA)/mg protein.
This example illustrates aspects according to various embodiments pertaining to a 72 h experiment with Compound 10 in L3.6pl cells. Ten milliliters of a cell suspension containing L3.6pl human pancreatic cancer cells (50,000 cells/mL) and aminoguanidine (1 mM) were placed in treated plastic Petri dishes (d=9 cm) and incubated overnight at 37° C. After 24 h, the cells were dosed with compound 10 at 2 μM, 5 μM, or 7 μM. (Note: Stock solutions of 10 at 2, 5, and 7 mM were dissolved in phosphate buffered saline (PBS) and were filtered through a 0.2 μm filter prior to use. The experiments were maintained with a total volume of 10.01 mL where 10 mL of the cell suspension was placed in a plastic dish and each compound or the equivalent PBS volume was added to make up the total volume 10.01 mL for each dish. For example, for the control experiment PBS (10 μL) was added to make up the total volume (10 mL+10 μL=10.01 mL). After 72 h incubation, the cells were collected first by pipetting off the supernatant containing floating dead cells from the culture dish as well as media and placing them into 15 mL tubes. The supernatant containing floating cells was centrifuged (4 min at 1,000 rpm). The cell-free supernatant (supernatant #1) was collected into a new 15 mL tube and quantified (˜8.6 mL) and was then stored frozen and was later quantified by LCMS to investigate the media composition of particular polyamine and amino acid analytes. The attached cells on the dish were washed with PBS (5 mL). The PBS wash was removed by suction and additional PBS (2 mL) was added and again suctioned off to provide twice-washed cells still adhered to the dish. Trypsin (2 mL) was then added to each dish and incubated (3-5 min) until all the cells were detached. Fresh media (8 mL) was added to quench the trypsin. […]

Series [2] relates to L3.6pl human pancreatic cancer cells. In words: Cytotoxicity dose-response (MTS) in L3.6pl cells. Type of series: cell-based. The note with it: L3.6pl cells, previously determined; read-out: 72 h IC50. The protocol: L3.6pl Studies. Compounds 9 and 10 were evaluated in the metastatic human pancreatic cancer cell line, L3.6pl. L3.6pl has a K-ras mutation, and high polyamine uptake activity.^7 A dose-response curve was obtained for each compound in L3.6pl cells to determine the 72 h L3.6pl IC50 value, described as the dose at which L3.6pl cells were 50% viable compared to the untreated control.
Regarding the biological studies performed in the following examples, it is noted that CHO K1, CHO-MG, and L3.6pl cells were grown in RPMI 1640 medium supplemented with 10% fetal bovine serum (FBS) and 1% penicillin/streptomycin. All cells were grown at 37° C. under a humidified 5% CO2 atmosphere. Aminoguanidine (1 mM used for CHO K1 and CHOMG cells and 250 μM for L3.6pl) was added to the growth medium to prevent oxidation of the compounds of the bovine serum amine oxidase enzyme that is present in calf serum. The cells used were in early to mid log phase and CHO and CHOMG were plated out at 1000 cells/well, whereas the L3.6pl cells were plated at 500 cells/well in a 96 well plate format.
This example illustrates aspects according to various embodiments pertaining to IC50 determinations and cell viability studies. Cell growth was assayed in sterile 96-well microtiter plates (Costar 3599, Corning, N.Y.). CHO K1 or CHOMG cells were plated at 1,000 cells/70 μL and L3.6pl cells at 500 cells/70 μL. The drug solutions of appropriate concentration in phosphate buffered saline (PBS) were added 10 μL per well after overnight incubation. After drug exposure (e.g., for 48 h for CHO K1 and CHO-MG and 48 h or 72 h for L3.6pl), cell growth was determined by measuring formazan formation from the 3-(4,5dimethylthiazol-2-yl)-5-(3-carboxymethoxyphenyl)-2-(4-sulfenyl)-2H tetrazolium, inner salt (MTS) using SynergyMx Biotek microplate reader for absorbance (490 nm) measurements.^27 All experiments were run in triplicate.

Series [3] relates to polyamine transport system (PTS). Particulars: CHO vs CHO-MG (ref 17); cited from earlier work.
Series [4] relates to L3.6pl human pancreatic cancer cells. The note with it: L3.6pl cells, CDAP 100 μM (ref 10); cited from earlier work.
Series [5] has as its system L3.6pl cells. Particulars: CDAP 100 μM (ref 10); cited from earlier work.

On to `Cl.NCCCCNCCCCNCc1c2ccccc2cc2ccccc12` [Ant-44, reference compound], for which, in series [1], the “intracellular level of Ant-44” value turned out to be 2.15±0.10 nmol Ant44/mg protein. For the same compound, the IC50 in series [2] was 4 µM. The “preference for CHO cell line over CHO-MG (IC50 comparison)” value in series [3] is approximately 150 fold.
For the compound `NCCCNC1CCCCC1` [CDAP, N-(3-aminopropyl)-cyclohexylamine], the viability in series [4] is listed as 100%. The Intracellular Spermine result in series [5] is “no detectable spermine”.

The term IC50 denotes the concentration that gives 50% inhibition. As usually defined, the viability is a read-out of living cells in per cent, often relative to untreated cells.
